# Literature values in patent US5500433A, “Method of treating drug abuse” (Merrell Pharmaceuticals Inc., priority 1995, dated 1996).
# Tests used:
# thrombus formation = details: canine models
# [1] = tested on: vascular smooth muscle cells; details: rabbit vascular smooth muscle cells
# [2] = tested on: phospholipase C mediated hydrolysis of phosphoinositides; details: rabbit vascular smooth muscle cells
# coronary vessels = details: patients with stable angina
# [3] = tested on: preference for alcohol and cocaine; details: rodent
Structure (SMILES),prevention of thrombus formation (thrombus formation),effect on PDGF induced DNA synthesis [1],inhibition of phospholipase C mediated hydrolysis of phosphoinositides [2],effect on coronary vessel constriction (coronary vessels),effect on preference for alcohol and cocaine [3]
O=C(c1ccc(F)cc1)C1CCN(CCn2c(=O)[nH]c3ccccc3c2=O)CC1 [Ketanserin],extremely effective in preventing thrombus formation,inhibited PDGF induced DNA synthesis,inhibited phospholipase C mediated hydrolysis of phosphoinositides,blocked coronary vessel constriction,–
Cc1nc2sccn2c(=O)c1CCN1CCC(=C(c2ccc(F)cc2)c2ccc(F)cc2)CC1 [ritanserin],–,–,–,–,abolished the preference for both alcohol and cocaine
NCCc1c[nH]c2ccc(O)cc12 [serotonin],–,stimulates PDGF induced DNA synthesis,–,induced constriction of the coronary vessels in these patients at all concentrations tested,–
